Assay results from PubChem BioAssay AID248 (DTP/NCI, 2004).
“And” between values parts separate entries of the source, which are not always exact repeats. Equal values may be shown once. Toxic doses and inconclusive results are not listed. Cut-off read from the data, not from the text of the source: active = T/C of 150% or more; inactive = T/C below 125%.

Tested on: L1210 leukemia ip in BDF1 mice, survival T/C
Assay: NCI In Vivo Anticancer Drug Screen. Data for tumor model L1210 Leukemia (intraperitoneal) in B6D2F1 (BDF1) mice
Conditions: endpoint: mean survival time, higher = longer survival
Outline: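 Ratio derived from survival: compound-dosed mice over vehicle-dosed mice, all bearing a transplantable tumor.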

[1] = dose: 50.0 mg/kg/injection, schedule: Q01DX001 (ip), vehicle: carboxymethylcellulose (CMC)
[2] = dose: 100.0 mg/kg/injection, schedule: Q01DX001 (ip), vehicle: carboxymethylcellulose (CMC)
[3] = dose: 200.0 mg/kg/injection, schedule: Q01DX001 (ip), vehicle: carboxymethylcellulose (CMC)
[4] = dose: 400.0 mg/kg/injection, schedule: Q01DX001 (ip), vehicle: carboxymethylcellulose (CMC)
[5] = dose: 100.0 mg/kg/injection, schedule: Q04DX003 (ip), vehicle: saline with Tween-80
[6] = dose: 200.0 mg/kg/injection, schedule: Q04DX003 (ip), vehicle: saline with Tween-80
[7] = dose: 400.0 mg/kg/injection, schedule: Q04DX003 (ip), vehicle: saline with Tween-80
[8] = dose: 100.0 mg/kg/injection, schedule: Q04DX003 (ip), vehicle: Klucel (hydroxypropylcellulose) (HPC)
[9] = dose: 200.0 mg/kg/injection, schedule: Q04DX003 (ip), vehicle: Klucel (hydroxypropylcellulose) (HPC)
[10] = dose: 400.0 mg/kg/injection, schedule: Q04DX003 (ip), vehicle: Klucel (hydroxypropylcellulose) (HPC)
[11] = dose: 50.0 mg/kg/injection, schedule: Q01DX009 (ip), vehicle: saline with Tween-80
[12] = dose: 100.0 mg/kg/injection, schedule: Q01DX009 (ip), vehicle: saline with Tween-80
[13] = dose: 200.0 mg/kg/injection, schedule: Q01DX009 (ip), vehicle: saline with Tween-80
[14] = dose: 25.0 mg/kg/injection, schedule: Q01DX009 (ip), vehicle: saline with Tween-80
[15] = dose: 100.0 mg/kg/injection, schedule: Q01DX001 (ip), vehicle: saline
[16] = dose: 200.0 mg/kg/injection, schedule: Q01DX001 (ip), vehicle: saline
[17] = dose: 400.0 mg/kg/injection, schedule: Q01DX001 (ip), vehicle: saline
[18] = dose: 100.0 mg/kg/injection, schedule: Q04DX003 (ip), vehicle: gum acacia
[19] = dose: 200.0 mg/kg/injection, schedule: Q04DX003 (ip), vehicle: gum acacia
[20] = dose: 400.0 mg/kg/injection, schedule: Q04DX003 (ip), vehicle: gum acacia

Measured: T/C

O=S(=O)(Cc1nc2ccccc2[nH]1)Cc1nc2ccccc2[nH]1
inactive: [1] 97 % of control | [2] 92 % of control | [3] 100 % of control | [4] 92 % of control

CCN(CC)CC(=O)NCC(CCN1CCCCC1)(CCN1CCCCC1)c1cccc2ccccc12
inactive: dose: 25.0 mg/kg/injection, schedule: Q01DX009 (ip), vehicle: saline 96 % of control | dose: 50.0 mg/kg/injection, schedule: Q01DX009 (ip), vehicle: saline 104 % of control | dose: 100.0 mg/kg/injection, schedule: Q04DX003 (ip), vehicle: saline 110 % of control

O=C(O)c1ccc(Cl)nc1
inactive: [1] 97 % of control | [2] 94 % of control | [5] 104 % of control | [3] 92 % of control | [6] 103 % of control | [4] 94 % of control | [7] 104 % of control

CC(=O)OC12C3CCCC1CCCC2CCC3 (centres undefined)
inactive: [8] 109 % of control | [9] 93 % of control | [10] 93 % of control

C(=C\c1ccc(-n2nc3ccc4ccccc4c3n2)cc1)/c1ccccc1
inactive: [11] 97 % of control | [12] 102 % of control | [13] 102 % of control

CN(C)C(=S)SCC(=O)c1ccccc1
inactive: dose: 2.5 mg/kg/injection, schedule: Q01DX009 (ip), vehicle: saline with Tween-80 93 % of control | dose: 5.0 mg/kg/injection, schedule: Q01DX009 (ip), vehicle: saline with Tween-80 89 % of control | dose: 10.0 mg/kg/injection, schedule: Q01DX009 (ip), vehicle: saline with Tween-80 105 % of control

CCO/C=N/c1onc(C)c1C#N
inactive: dose: 100.0 mg/kg/injection, schedule: Q04DX003 (ip), vehicle: carboxymethylcellulose (CMC) 102 % of control | dose: 200.0 mg/kg/injection, schedule: Q04DX003 (ip), vehicle: carboxymethylcellulose (CMC) 100 % of control | dose: 400.0 mg/kg/injection, schedule: Q04DX003 (ip), vehicle: carboxymethylcellulose (CMC) 90 % of control

[O-][n+]1c(Cl)cc(Cl)c2ccccc21
inactive: [14] 95 % of control | [11] 114 % of control | [12] 97 % of control and 102 % of control

C=Cc1c(C)c(O)cc2c1-c1ccc(O)c(C)c1CC2
inactive: dose: 6.25 mg/kg/injection, schedule: Q01DX009 (ip), vehicle: saline with Tween-80 102 % of control | dose: 12.5 mg/kg/injection, schedule: Q01DX009 (ip), vehicle: saline with Tween-80 102 % of control | [14] 98 % of control | [11] 91 % of control

CCCCC(CC)CCC(=O)CC(C)C (centres undefined)
inactive: dose: 100.0 mg/kg/injection, schedule: Q01DX009 (ip), vehicle: Klucel (hydroxypropylcellulose) (HPC) 91 % of control | [8] 108 % of control | dose: 200.0 mg/kg/injection, schedule: Q01DX009 (ip), vehicle: Klucel (hydroxypropylcellulose) (HPC) 102 % of control | [9] 98 % of control | [10] 98 % of control

CN(C)/N=C1\CCc2ccccc21
inactive: [15] 106 % of control | dose: 100.0 mg/kg/injection, schedule: Q01DX009 (ip), vehicle: saline 102 % of control | [16] 113 % of control | [17] 101 % of control

N#CCCNC(=O)Nc1cccc2ccccc12
inactive: [2] 96 % of control | [3] 100 % of control | [4] 96 % of control

Cc1cc(C)c(C(=O)OC(C)CNC2CCCCC2)c(C)c1 (centres undefined)
inactive: dose: 75.0 mg/kg/injection, schedule: Q01DX001 (ip), vehicle: carboxymethylcellulose (CMC) 96 % of control | dose: 150.0 mg/kg/injection, schedule: Q01DX001 (ip), vehicle: carboxymethylcellulose (CMC) 102 % of control

c1cc2c3c(c1)ncn3CCC2
inactive: dose: 50.0 mg/kg/injection, schedule: Q01DX009 (ip), vehicle: other 119 % of control | dose: 100.0 mg/kg/injection, schedule: Q01DX009 (ip), vehicle: other 104 % of control | [5] 102 % of control | dose: 200.0 mg/kg/injection, schedule: Q01DX009 (ip), vehicle: other 117 % of control | [6] 100 % of control

CCCCCc1cc2c3c(c(=O)oc2cc1O)CCCCC3
inactive: [18] 90 % of control | [19] 88 % of control | [20] 96 % of control

C=CCNC(=O)c1ccccc1OCC(=O)O
inactive: dose: 100.0 mg/kg/injection, schedule: Q01DX009 (ip), vehicle: gum acacia 93 % of control | [18] 103 % of control | dose: 200.0 mg/kg/injection, schedule: Q01DX009 (ip), vehicle: gum acacia 88 % of control | [19] 100 % of control | dose: 400.0 mg/kg/injection, schedule: Q01DX009 (ip), vehicle: gum acacia 94 % of control | [20] 97 % of control

CC(=O)c1cccc(NC(=O)Oc2ccc(-c3ccccc3)cc2)c1
inactive: dose: 100.0 mg/kg/injection, schedule: Q01DX001 (ip), vehicle: saline with Tween-80 98 % of control | [12] 100 % of control and 90 % of control | dose: 100.0 mg/kg/injection, schedule: Q04DX002 (ip), vehicle: saline with Tween-80 96 % of control and 98 % of control | [5] 90 % of control | dose: 200.0 mg/kg/injection, schedule: Q01DX001 (ip), vehicle: saline with Tween-80 90 % of control | [13] 95 % of control | dose: 200.0 mg/kg/injection, schedule: Q04DX002 (ip), vehicle: saline with Tween-80 93 % of control and 98 % of control | [6] 92 % of control | dose: 400.0 mg/kg/injection, schedule: Q01DX009 (ip), vehicle: saline with Tween-80 90 % of control | dose: 400.0 mg/kg/injection, schedule: Q04DX002 (ip), vehicle: saline with Tween-80 91 % of control | [7] 93 % of control

CSCc1ccccn1
inactive: dose: 50.0 mg/kg/injection, schedule: Q01DX001 (ip), vehicle: saline 106 % of control | [15] 101 % of control | [16] 93 % of control | [17] 104 % of control

O=S(=O)(CCCCCCl)Cc1ccccc1
inactive: [15] 93 % of control | [16] 93 % of control | [17] 96 % of control
